# Results from patent publication US10905744B2, “Pharmaceutical formulations for the oral delivery of peptide drugs” (Cyprumed GmbH, priority 2015, dated 2021).
# Tests used:
# [1] = Pharmacokinetic profile of octreotide formulations after administration into proximal jejunum (Example 8)
# Protocol: The formulations OCT002, OCT003 and OCT004 were dissolved in an octreotide stock solution 5-10 min prior to dosing into proximal jejunum in volume of 0.4 ml/kg to anaesthetized rats. The final octreotide concentration of each formulation was 0.36 mg/kg. Blood was taken from tail vessels at the time points 0, 10, 20, 40, 60, 90 and 120 min after dosing. The octreotide plasma concentration was determined using commercial octreotide kit (Peninsula Laboratories International, Inc., USA, cat.number S-1342.0001).
# trypsin = target: T1, trypsin (Bos taurus, UniProt P00760); experiment: Trypsin inhibition, BAPNA substrate, absorbance at 405 nm (Examples 10-12, 20-22, 25, 26, 28, 29, 33); format: biochemical; details: for inhibition of trypsin: 50 mM TRIS pH 7
# T1 construct: gene PRSS1
# T1 sequence (P00760 24-246): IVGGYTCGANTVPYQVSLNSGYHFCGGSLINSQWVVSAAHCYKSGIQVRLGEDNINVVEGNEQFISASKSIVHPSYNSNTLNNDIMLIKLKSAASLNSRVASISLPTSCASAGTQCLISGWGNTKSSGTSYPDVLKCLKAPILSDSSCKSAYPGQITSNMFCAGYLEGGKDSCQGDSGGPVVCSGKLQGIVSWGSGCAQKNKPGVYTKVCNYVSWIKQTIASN
# Protocol: 100 mg/ml copper gluconate in 50 mM TRIS pH 7; pH was adjusted to pH 7; stock solution was diluted to the following concentrations: 50 mg/ml, 25 mg/ml, 12.5 mg/ml, 5 mg/ml, 6.25 mg/ml, 3.125 mg/ml, 2.5 mg/ml, 1.25 mg/ml, 0.625 mg/ml, 0.313 mg/ml, 0.156 mg/ml and 0.078 mg/ml
# 0.5 mg/mL Benzoyl-Arginine p-nitroanilide (BAPNA)
# 100 μl 50 mM TRIS pH 7+50 μL Trypsin Stock+50 μL BAPNA Stock
# 100 μl Copper solution (according to the above described dilutions)+50 μL Trypsin Stock+50 μL BAPNA Stock
# Absorption was measured after 15 minutes at 405 nm.
# Values were corrected (subtraction of blank).
# 100 mg/ml Zinc bisglycinate in 50 mM TRIS pH 7; pH was adjusted to pH 7; stock solution was diluted to the following concentrations: 50 mg/ml and 25 mg/ml
# 100 μl Zinc solution (according to the above described dilutions)+50 μL Trypsin Stock+50 μL BAPNA Stock
# 10 mg/ml iron gluconate in 50 mM TRIS pH 7; pH was adjusted to pH 7; stock solution was diluted to the following concentrations: 5 mg/ml, 2.5 mg/ml, 1.25 mg/ml and 0.625 mg/ml
# 100 μl Iron solution (according to the above described dilutions)+50 μL Trypsin Stock+50 μL BAPNA Stock
# Absorption was measured directly at 405 nm.
# Benzoyl-Arginine p-nitroanilide (BAPNA): 0.5 mg/ml in 50 mM TRIS pH 7 (centrifuged and supernatant used as stock solution)
# Trypsin: […] in 50 mM TRIS pH 7
# 1 mg/mL iron gluconate in 10 mM TRIS pH 7 (iron content=12%), 0.12 mg/ml iron
# […] copper lysinate in 10 mM TRIS pH 7 (copper content=3%), 0.12 mg/ml copper
# 100 μl of the respective salt solution+50 μL Trypsin Stock+50 μL BAPNA Stock
# Experiments were carried out at pH 7, 50 mM TRIS.
# 0.025 mg/ml Trypsin, 0.125 mg/mL Benzoyl-Arginine p-nitroanilide (BAPNA.) Lauryl glutamate:
# 0.25 mg/ml; copper content (as copper(II)gluconate): 0.035 mg/ml.
# Adsorption measurement at 405 nm
# 0.025 mg/ml Trypsin, 0.125 mg/mL Benzoyl-Arginine p-nitroanilide (BAPNA). lauryl-glutamate:
# Absorption measurement at 405 nm
# 0.025 mg/ml Trypsin, 0.125 mg/mL Benzoyl-Arginine p-nitroanilide (BAPNA). Capryl-glucoside:
# Copper sulfate stock solution: 1 mg/ml of copper sulfate was dissolved in 50 mM TRIS pH 7. Copper tartrate stock solution: 1 mg/ml of copper tartrate was dispersed in 50 mM TRIS pH 7 and moderately stirred for 5 minutes. The suspension was then centrifuged at 3′000 rpm for 10 minutes, to separate the insoluble salt. The supernatant was used as stock solution for the experiments.
# Zinc orotate stock solution: 1 mg/ml of zinc orotate was dispersed in 50 mM TRIS pH 7 and moderately stirred for 5 minutes. The suspension was then centrifuged at 3′000 rpm for 10 minutes, to separate the insoluble salt. The supernatant was used as stock solution for the experiments.
# 100 μL of the respective salt solution stock+50 μL Trypsin Stock+50 μL BAPNA Stock
# Control: 100 μL of 50 mM TRIS pH 7+50 μL Trypsin Stock+50 μL BAPNA Stock
# Final concentrations of protease and substrate were 0.025 mg/ml Trypsin, 0.125 mg/mL
# 50 μl manganese sulfate+50 μl copper gluconate+50 μL Trypsin Stock+50 μL BAPNA Stock
# Absorption measurement at 405 nm; final pH in all solutions was monitored to be pH 7.
# 3 mg/ml SiO2—suspended in 50 mM TRIS pH 7 and centrifuged; supernatant was used for experiments.
# 50 μl SiO2+50 μl 50 mM TRIS pH 7+50 μL Trypsin Stock+50 μL BAPNA Stock
# 50 μl copper gluconate+50 μl SiO2+50 μL Trypsin Stock+50 μL BAPNA Stock
# 50 μl iron gluconate+50 μl SiO2+50 μL Trypsin Stock+50 μL BAPNA Stock
# 120 μl 50 mM TRIS pH 7+50 μL Trypsin Stock+50 μL BAPNA Stock
# 80 μl copper gluconate+40 μl 50 mM TRIS pH 7+50 μL Trypsin Stock+50 μL BAPNA Stock
# 40 μl copper gluconate+80 μl 50 mM TRIS pH 7+50 μL Trypsin Stock+50 μL BAPNA Stock
# 80 μl iron gluconate+40 μl 50 mM TRIS pH 7+50 μL Trypsin Stock+50 μL BAPNA Stock
# 40 μl iron gluconate+80 μl 50 mM TRIS pH 7+50 μL Trypsin Stock+50 μL BAPNA Stock
# 80 μl iron gluconate+40 μl copper gluconate+50 μL Trypsin Stock+50 μL BAPNA Stock
# [2] = GLP-1 peptide formulations with SNAC and trace elements: dissolution in aqua purificata, visual (Example 4); format: physicochemical; details: liraglutide 1.8 mg/ml, SNAC 20 mg, trace element 2 mg, disodium phosphate dihydrate, 2 ml aqua purificata
# Protocol: Compositions comprising a GLP-1 peptide, a complexing agent (disodium phosphate dihydrate), the absorption enhancer N-(8-[2-hydroxybenzoyl]amino)caprylic acid (SNAC) and various trace elements or metal salts were prepared and dissolved in 2 ml of aqua purificata and examined visually.
# chymotrypsin = chymotrypsin (Bos taurus, UniProt P00766); experiment: Chymotrypsin inhibition, BTPNA substrate, absorbance at 405 nm (Examples 9, 13-19, 23, 24, 27, 30, 31); details: for Inhibition %: Example 15
# Protocol: CuSO4.5H2O dilutions in 10 mM TRIS buffer pH 7 to 10 mM, 5 mM, 2.5 mM 1.25 mM Benzoyl-Tyrosine p-nitroanilide (BTPNA): 0.5 mg/mL BTPNA in Acetone
# Study: • (1) 100 μl buffer (10 mM TRIS, pH=7)+50 μl Chymotrypsin Stock+50 μl BTPNA • (2) 80 μl buffer (10 mM TRIS, pH=7)+20 μl CuSO4 stock (10 mM)+50 μl Chymotrypsin Stock+50 μl BTPNA • (3) 80 μl buffer (10 mM TRIS, pH=7)+20 μl CuSO4 dilut. (5 mM)+50 μl Chymotrypsin Stock+50 μl BTPNA • (4) 80 μl buffer (10 mM TRIS, pH=7)+20 μl CuSO4 stock (2.5 mM)+50 μl Chymotrypsin Stock+50 μl BTPNA • (5) 80 μl buffer (10 mM TRIS, pH=7)+20 μl CuSO4 dilut. (1.25 mM)+50 μl Chymotrypsin Stock+50 μl BTPNA
# Final copper concentrations: 1 mM, 0.5 mM, 0.25 mM, 0.125 mM.
# 10 mM CuSO4 and Copper gluconate stock solution were diluted 1:1 with 10 mM TRIS buffer pH 7
# Study: • (1) 100 μl buffer (10 mM TRIS, pH=7)+50 μl Chymotrypsin Stock+50 μl BTPNA • (2) 80 μl buffer (10 mM TRIS, pH=7)+20 μl CuSO4 dil. (5 mM)+50 μl Chymotrypsin Stock+50 μl BTPNA • (3) 80 μl buffer (10 mM TRIS, pH=7)+20 μl Copper gluconate dilut. (5 mM)+50 μl Chymotrypsin Stock+50 μl BTPNA • (4) 100 μl Cu-bisglycinate stock (0.5 mM)+50 μl Chymotrypsin Stock+50 μl BTPNA
# 10 mM CuSO4 stock solution was diluted 1:1 with 10 mM TRIS Puffer pH 7
# Study: • (1) 30 μl buffer (10 mM TRIS, pH=7)+20 μl CuSO4 dil. (5 mM)+100 μl Chymotrypsin Stock: 30 min. incubation, then addition of 50 μl BTPNA • (2) 30 μl buffer (10 mM TRIS, pH=7)+100 μl Chymotrypsin Stock: 30 min. incubation, then addition of 20 μl CuSO4 dil. (5 mM)+50 μl BTPNA
# Final copper concentration: 0.5 mM
# Iron(II)-bisglycinate solution containing 1.86 mM of iron in 10 mM TRIS buffer pH 7 was prepared
# Cu(II)-gluconate solution containing 2.0 mM of copper in 10 mM TRIS buffer pH 7 was prepared
# Study: • (1) 100 μl buffer (10 mM TRIS, pH=7)+50 μl Chymotrypsin Stock+50 μl BTPNA • (2) 100 μl iron(II)-bisglycinate+50 μl Chymotrypsin Stock+50 μl BTPNA • (3) 100 μl copper(II)-gluconate+50 μl Chymotrypsin Stock+50 μl BTPNA
# Values were corrected (subtraction of blank). Inhibition was calculated by setting the absorption value of (1) at each time-point as 100%.
# Iron(II)-bisglycinate solution containing 0.46 mM of iron in 10 mM TRIS buffer pH 7 was prepared
# Cu(II)- bisglycinate solution containing 0.46 mM of copper in 10 mM TRIS buffer pH 7 was prepared
# Study: • (1) 100 μl buffer (10 mM TRIS, pH=7)+50 μl Chymotrypsin Stock+50 μl BTPNA • (2) 100 μl iron(II)-bisglycinate+50 μl Chymotrypsin Stock+50 μl BTPNA • (3) 100 μl copper(II)-bisglycinate+50 μl Chymotrypsin Stock+50 μl BTPNA
# Values were corrected (subtraction of blank). Inhibition (%) was calculated by setting the absorption value of (1) at each time-point as 100% degradation.
# Values were corrected (subtraction of blank). pH was confirmed to be pH 7 after the experiment.
# 0.025 mg/ml Chymotrypsin, 0.05 mg/mL Benzoyl-Tyrosine p-nitroanilide (BTPNA). Lauryl glutamate: 0.25 mg/ml; copper (as copper gluconate): 0.035 mg/ml.
# 0.025 mg/ml Chymotrypsin, 0.05 mg/mL Benzoyl-Tyrosine p-nitroanilide (BTPNA). Lauryl glutamate: 0.25 mg/ml; iron (as iron gluconate): 0.03 mg/ml.
# 100 μl 50 mM TRIS pH 7+50 μL Chymotrypsin Stock+50 μL BTPNA Stock
# 50 μl Beta-cyclodextrin+50 μl 50 mM TRIS pH 7+50 μL Chymotrypsin Stock+50 μL BTPNA Stock
# 50 μl copper gluconate+50 μl 50 mM TRIS pH 7+50 μL Chymotrypsin Stock+50 μL BTPNA Stock
# 50 μl copper gluconate+50 μl Beta-cyclodextrin+50 μL Chymotrypsin Stock+50 μL BTPNA Stock
# 50 μl copper gluconate+50 μl trisodium phosphate+50 μL Chymotrypsin Stock+50 μL BTPNA Stock
# 50 μl iron gluconate+50 μl trisodium phosphate+50 μL Chymotrypsin Stock+50 μL BTPNA Stock
# Experiments were carried out at pH 7 in 50 mM TRIS buffer.
# [3] = Pharmacokinetic profiles of PTH(1-34) formulations after intestinal administration (Example 3); format: in vivo, Sprague Dawley rats; details: relative to PTH(1-34) s.c.
# Protocol: Teriparatide (PTH1-34) was dosed subcutaneously in volume of 1 ml/kg (final concentration 0.024 mg/ml teriparatide) to anaesthetized rats. TER001 and TER002 were dosed into ileum in volume of 0.4 mi/kg (final concentration 0.24 mg/ml teriparatide) to anaesthetized rats. […] The teriparatide plasma concentrations were determined using commercial pTH (1-34) human ELISA kit (Biovendor, EU, cat. number RS-1163.0001).
# [4] = study comparing aprotinin with aminocaproic acid; cited from earlier work
# [5] = Sprague Dawley, rat, in vivo, sc
# [6] = Example 20, solutions 1 mg/mL iron gluconate, 1 mg/mL copper gluconate, 12 mg/mL copper lysinate, FIG. 11
# [7] = Example 33, stocks 1 mg/ml copper(II)gluconate, 1 mg/ml iron(II)gluconate, 40 or 80 μl, pH 7, FIG. 23
compound,measurement,setting,value
"C[C@@H](O)[C@@H]1NC(=O)[C@H](CCCCN)NC(=O)[C@@H](Cc2c[nH]c3ccccc23)NC(=O)[C@H](Cc2ccccc2)NC(=O)[C@@H](NC(=O)[C@H](N)Cc2ccccc2)CSSC[C@@H](C(=O)N[C@H](CO)[C@@H](C)O)NC1=O [Reference (s.c.), Octreotide]",ΔAUC(0-120),"[1]; OCT formulations 0.4 ml/kg into proximal jejunum, octreotide 0.36 mg/kg, reference s.c., anaesthetized rats",14126 ± 2727 ng·min/mL
same,bioavailability,"[1]; Sprague Dawley, rat, in vivo",100 ± 19%
same,Cmax,[1]; [5],148 ± 36 ng/mL
same,Tmax,[1]; [5],1.5 h
Copper gluconate,inhibition of trypsin,"trypsin; Example 10, copper gluconate solutions 100 to 0.078 mg/ml, after 15 minutes, FIG. 3",inhibits the proteolytic enzyme trypsin in a dose dependent manner
same,trypsin inhibition,trypsin; [6],can be inhibited
same,trypsin inhibition,"trypsin; Example 21, lauryl glutamate […], copper […], pH 7, 50 mM TRIS, FIG. 12",can be inhibited
same,trypsin inhibition,"trypsin; Example 28, stocks 1 mg/ml copper(II)gluconate, 1 mg/ml manganese(II)sulfate, pH 7, FIG. 19",can be inhibited
same,trypsin inhibition,trypsin; [7],can be inhibited
same,Dissolution in aqua purificata,[2],Clear yellowish solution
same,Inhibition %,"chymotrypsin; 0 minutes, metal ion Fe 0.06 mg/ml (0.92 mM), Cu 0.065 mg/ml (1.0 mM), 10 mM TRIS pH 7",0%
same,Inhibition %,"chymotrypsin; 15 minutes, metal ion Fe 0.92 mM, Cu 1.0 mM",82%
same,Inhibition %,"chymotrypsin; 30 minutes, metal ion Fe 0.92 mM, Cu 1.0 mM",84%
same,Inhibition %,"chymotrypsin; 45 minutes, metal ion Fe 0.92 mM, Cu 1.0 mM",82%
same,Inhibition %,"chymotrypsin; 60 minutes, metal ion Fe 0.92 mM, Cu 1.0 mM",79%
same,chymotrypsin inhibition,"chymotrypsin; Example 18, stocks: copper gluconate 10 mM, EDTA 5 mM, sodium caprylate 4 mg/ml, pH 7, FIG. 9",can inhibit chymotrypsin
same,chymotrypsin inhibition,"chymotrypsin; Example 23, lauryl glutamate […], copper […], pH 7, 50 mM TRIS, FIG. 14",can be inhibited
same,chymotrypsin inhibition,"chymotrypsin; Example 27, stocks […] copper(II)gluconate, 1 mg/ml beta-cyclodextrin, FIG. 18",can be inhibited
same,chymotrypsin inhibition,"chymotrypsin; Example 31, stocks […] copper(II)gluconate, 1.25 mM EDTA, pH 7, 10 mM TRIS, FIG. 22",can be inhibited
"CC[C@H](C)[C@H](NC(=O)[C@H](CCC(=O)O)NC(=O)[C@H](CO)NC(=O)[C@@H](NC(=O)[C@@H](N)CO)C(C)C)C(=O)N[C@@H](CCC(N)=O)C(=O)N[C@@H](CC(C)C)C(=O)N[C@@H](CCSC)C(=O)N[C@@H](Cc1cnc[nH]1)C(=O)N[C@@H](CC(N)=O)C(=O)N[C@@H](CC(C)C)C(=O)NCC(=O)N[C@@H](CCCCN)C(=O)N[C@@H](Cc1cnc[nH]1)C(=O)N[C@@H](CC(C)C)C(=O)N[C@@H](CC(N)=O)C(=O)N[C@@H](CO)C(=O)N[C@@H](CCSC)C(=O)N[C@@H](CCC(=O)O)C(=O)N[C@@H](CCCN=C(N)N)C(=O)N[C@H](C(=O)N[C@@H](CCC(=O)O)C(=O)N[C@@H](Cc1c[nH]c2ccccc12)C(=O)N[C@@H](CC(C)C)C(=O)N[C@@H](CCCN=C(N)N)C(=O)N[C@@H](CCCCN)C(=O)N[C@@H](CCCCN)C(=O)N[C@@H](CC(C)C)C(=O)N[C@@H](CCC(N)=O)C(=O)N[C@@H](CC(=O)O)C(=O)N[C@H](C(=O)N[C@@H](Cc1cnc[nH]1)C(=O)N[C@@H](CC(N)=O)C(=O)N[C@@H](Cc1ccccc1)C(=O)O)C(C)C)C(C)C [PTH (1-34) s.c., Teriparatide]",F,[3],100 ± 23%
Iron gluconate,inhibition of trypsin,"trypsin; Example 12, iron gluconate solutions 10 to 0.625 mg/ml, FIG. 5",inhibits the proteolytic enzyme trypsin in a dose dependent manner
same,trypsin inhibition,trypsin; [6],can be inhibited
same,trypsin inhibition,"trypsin; Example 22, lauryl-glutamate […], iron 0.03 mg/ml, pH 7, 50 mM TRIS, FIG. 13",can be inhibited
same,trypsin inhibition,"trypsin; Example 25, capryl-glucoside […], iron 0.03 mg/ml, pH 7, 50 mM TRIS, FIG. 16",can be inhibited
same,trypsin inhibition,trypsin; [7],can be inhibited
same,Dissolution in aqua purificata,[2],Clear orange solution
same,chymotrypsin inhibition,"chymotrypsin; Example 24, lauryl glutamate […], iron 0.03 mg/ml, pH 7, 50 mM TRIS, FIG. 15",can be inhibited
Aprotinin,increase in mortality,[4],64%
